Assay results taken from patent US20160002248A1, “GLS1 INHIBITORS FOR TREATING DISEASE” (Board of Regents, The University of Texas System, priority 2014, published 2016).

Legend:
[1] = biological target: T1, purified recombinant human GAC (GLS1) (Homo sapiens, UniProt O94925); assay: GLS1 Enzymatic Activity Assay (dual-coupled enzymatic assay); format: biochemical
T1 sequence (O94925 55-598 isoform O94925-3 limits assumed): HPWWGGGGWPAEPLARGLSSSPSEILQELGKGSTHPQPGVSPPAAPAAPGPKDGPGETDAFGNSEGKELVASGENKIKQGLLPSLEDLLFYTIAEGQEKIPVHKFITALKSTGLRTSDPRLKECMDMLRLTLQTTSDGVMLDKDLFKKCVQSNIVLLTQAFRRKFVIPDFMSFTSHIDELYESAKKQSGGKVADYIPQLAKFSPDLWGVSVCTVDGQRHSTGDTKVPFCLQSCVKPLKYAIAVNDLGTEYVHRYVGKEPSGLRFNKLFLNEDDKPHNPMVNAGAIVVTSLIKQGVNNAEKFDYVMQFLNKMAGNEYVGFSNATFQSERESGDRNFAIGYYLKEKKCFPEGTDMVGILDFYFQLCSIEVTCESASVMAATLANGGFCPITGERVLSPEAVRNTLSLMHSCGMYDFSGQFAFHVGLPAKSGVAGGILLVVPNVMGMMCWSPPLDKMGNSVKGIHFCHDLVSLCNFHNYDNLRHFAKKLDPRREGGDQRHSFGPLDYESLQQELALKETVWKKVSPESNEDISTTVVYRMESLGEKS
Procedure, shortened: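 Recombinant human GAC (2 nM) preincubated with 50 mM potassium phosphate, then inhibitor (10 min each, RT); 1 mM glutamine, pH 7.4 Hepes buffer, 1% DMSO. Glutamate coupled via glutamate oxidase/HRP to resorufin (Ex 530/Em 590), kinetic or 20-min endpoint; IC50 by four-parameter logistic fit.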

[2] = test system: A549 cells; assay: Proliferation Assay (A549 cell viability, Cell Titer Fluor); format: cell-based; conditions: Homo sapiens, 72 hours
Procedure, shortened: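 Fluorescence read-out (Cell Titer Fluor, 30 min at 37 °C after reagent) after 72 h compound exposure of A549 cells; EC50 by four-parameter logistic curve fit. Cells: 1000/well, RPMI 1640 + 10% dialyzed FBS, 0.5% DMSO final.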

IC50 [1] [nM]	EC50 [2] [nM]	Structure (SMILES)
< 100	100 to 500	O=C(NCc1cncc(C(F)(F)F)c1)c1cn(CCCCc2cc3c(C4CC4)c(C4CC4)[nH]c3nn2)nn1 [Example 212, 1-(4-{5,6-dicyclopropyl-7H-pyrrolo[2,3-c]pyridazin-3-yl}butyl)-N-{[5-(trifluoromethyl)pyridin-3-yl]methyl}-1H-1,2,3-triazole-4-carboxamide]
< 100	< 100	CC(C)(C)OC(=O)N1CC=C(c2c(C3CC3)[nH]c3nnc(CCCCn4cc(C(=O)NCc5cccc(OC(F)(F)F)c5)nn4)cc23)CC1 [Example 197, tert-butyl 4-(6-cyclopropyl-3-{4-[4-({[3-(trifluoromethoxy)phenyl]methyl}carbamoyl)-1H-1,2,3-triazol-1-yl]butyl}-7H-pyrrolo[2,3-c]pyridazin-5-yl)-1,2,3,6-tetrahydropyridine-1-carboxylate]
< 100	100 to 500	CC(C)(O)c1ccc(CNC(=O)c2cn(CCCCc3cc4c(Br)c(C5CC5)[nH]c4nn3)nn2)cn1 [Example 89, 1-(4-{5-bromo-6-cyclopropyl-7H-pyrrolo[2,3-c]pyridazin-3-yl}butyl)-N-{[6-(2-hydroxypropan-2-yl)pyridin-3-yl]methyl}-1H-1,2,3-triazole-4-carboxamide]
